Data from the NIST ThermoML archive (doi:10.1016/j.jct.2012.03.034).
± gives the expanded uncertainty stated by the source.

Assay: xn = mol fraction of the nth substance listed
Conditions: 101 kPa, Liquid; for speed of sound: Linear variable-path acoustic interferometer; for mass density: Vibrating tube method; for viscosity: dual vibrating plate viscometer, AandD Co. Ltd Model SV-10

CC(=O)[O-].CC[NH2+]CC [diethylammonium acetate] + CN1CCCC1=O
Conditions | mass density [kg/m3] | speed of sound [m/s] | viscosity [mPa·s]
298.15 K, x1 = 0.0234 | 1026.53 ± 0.31 | 1570 ± 2 | 1.83 ± 0.04
298.15 K, x1 = 0.0473 | 1027.19 ± 0.31 | 1570 ± 2 | 1.82 ± 0.04
298.15 K, x1 = 0.1188 | 1028.41 ± 0.31 | 1576 ± 2 | 2.26 ± 0.05
298.15 K, x1 = 0.1668 | 1029.09 ± 0.31 | 1575 ± 2 | 2.67 ± 0.06
298.15 K, x1 = 0.2393 | 1029.73 ± 0.31 | 1563 ± 2 | 3.57 ± 0.08
298.15 K, x1 = 0.3616 | 1030.18 ± 0.31 | 1527 ± 2 | 5.62 ± 0.12
298.15 K, x1 = 0.411 | 1030.19 ± 0.31 | 1510 ± 2 | 6.49 ± 0.14
298.15 K, x1 = 0.4856 | 1029.95 ± 0.31 | 1487 ± 2 | 7.94 ± 0.17
298.15 K, x1 = 0.6115 | 1028.88 ± 0.31 | 1458 ± 2 | 10.53 ± 0.22
298.15 K, x1 = 0.7391 | 1027.18 ± 0.31 | 1454 ± 2 | 13.14 ± 0.27
298.15 K, x1 = 0.8686 | 1024.96 ± 0.31 | 1486 ± 2 | 15.33 ± 0.32
298.15 K, x1 = 0.9493 | 1023.14 ± 0.31 | 1539 ± 2 | 16.26 ± 0.34
298.15 K, x1 = 0.9758 | 1022.3 ± 0.31 | 1562 ± 3 | 16.41 ± 0.34
298.15 K, x1 = 1 | 1021.41 ± 0.31 | 1608 ± 2 | 16.36 ± 0.34
303.15 K, x1 = 0.0234 | 1024.14 ± 0.3 | 1555 ± 2 | 1.6 ± 0.03
303.15 K, x1 = 0.0473 | 1024.34 ± 0.31 | 1557 ± 2 | 1.66 ± 0.03
303.15 K, x1 = 0.1188 | 1025.34 ± 0.31 | 1563 ± 2 | 2.03 ± 0.04
303.15 K, x1 = 0.1668 | 1025.85 ± 0.31 | 1565 ± 2 | 2.34 ± 0.05
303.15 K, x1 = 0.2393 | 1026.2 ± 0.31 | 1556 ± 2 | 3.09 ± 0.07
303.15 K, x1 = 0.3616 | 1026.29 ± 0.31 | 1523 ± 2 | 4.89 ± 0.1
303.15 K, x1 = 0.411 | 1026.22 ± 0.31 | 1508 ± 2 | 5.6 ± 0.12
303.15 K, x1 = 0.4856 | 1025.78 ± 0.31 | 1488 ± 2 | 6.88 ± 0.14
303.15 K, x1 = 0.6115 | 1024.47 ± 0.31 | 1460 ± 2 | 9.13 ± 0.19
303.15 K, x1 = 0.7391 | 1022.47 ± 0.31 | 1458 ± 2 | 11.3 ± 0.23
303.15 K, x1 = 0.8686 | 1019.99 ± 0.31 | 1494 ± 2 | 13.05 ± 0.27
303.15 K, x1 = 0.9493 | 1018.04 ± 0.31 | 1552 ± 2 | 13.74 ± 0.28
303.15 K, x1 = 0.9758 | 1017.29 ± 0.31 | 1574 ± 2 | 13.82 ± 0.29
303.15 K, x1 = 1 | 1016.52 ± 0.3 | 1612 ± 2 | 13.64 ± 0.28
308.15 K, x1 = 0.0234 | 1019.65 ± 0.3 | 1531 ± 2 | 1.48 ± 0.03
308.15 K, x1 = 0.0473 | 1019.91 ± 0.3 | 1536 ± 2 | 1.67 ± 0.04
308.15 K, x1 = 0.1188 | 1020.3 ± 0.31 | 1546 ± 2 | 1.87 ± 0.04
308.15 K, x1 = 0.1668 | 1020.67 ± 0.31 | 1548 ± 2 | 2.15 ± 0.05
308.15 K, x1 = 0.2393 | 1020.89 ± 0.31 | 1542 ± 2 | 2.84 ± 0.06
308.15 K, x1 = 0.3616 | 1020.97 ± 0.31 | 1514 ± 2 | 4.45 ± 0.09
308.15 K, x1 = 0.411 | 1020.77 ± 0.31 | 1502 ± 2 | 5.1 ± 0.11
308.15 K, x1 = 0.4856 | 1020.41 ± 0.31 | 1484 ± 2 | 6.24 ± 0.13
308.15 K, x1 = 0.6115 | 1019.23 ± 0.3 | 1462 ± 2 | 8.23 ± 0.17
308.15 K, x1 = 0.7391 | 1017.4 ± 0.3 | 1463 ± 2 | 10.18 ± 0.21
308.15 K, x1 = 0.8686 | 1015.03 ± 0.3 | 1501 ± 2 | 11.58 ± 0.24
308.15 K, x1 = 0.9493 | 1013.14 ± 0.3 | 1555 ± 2 | 12.1 ± 0.25
308.15 K, x1 = 0.9758 | 1012.47 ± 0.3 | 1580 ± 2 | 12.16 ± 0.25
308.15 K, x1 = 1 | 1011.87 ± 0.3 | 1616 ± 2 | 11.83 ± 0.24
313.15 K, x1 = 0.0234 | 1014.97 ± 0.3 | 1527 ± 2 | 1.37 ± 0.03
313.15 K, x1 = 0.0473 | 1015.32 ± 0.3 | 1532 ± 2 | 1.44 ± 0.03
313.15 K, x1 = 0.1188 | 1015.77 ± 0.3 | 1544 ± 2 | 1.75 ± 0.04
313.15 K, x1 = 0.1668 | 1016.03 ± 0.3 | 1547 ± 2 | 1.98 ± 0.04
313.15 K, x1 = 0.2393 | 1016.53 ± 0.3 | 1543 ± 2 | 2.61 ± 0.06
313.15 K, x1 = 0.3616 | 1016.79 ± 0.3 | 1520 ± 2 | 4.05 ± 0.08
313.15 K, x1 = 0.411 | 1016.77 ± 0.3 | 1509 ± 2 | 4.66 ± 0.1
313.15 K, x1 = 0.4856 | 1016.52 ± 0.3 | 1494 ± 2 | 5.67 ± 0.12
313.15 K, x1 = 0.6115 | 1015.76 ± 0.3 | 1473 ± 2 | 7.42 ± 0.15
313.15 K, x1 = 0.7391 | 1014.43 ± 0.3 | 1477 ± 2 | 9.06 ± 0.19
313.15 K, x1 = 0.8686 | 1012.59 ± 0.3 | 1515 ± 2 | 10.26 ± 0.21
313.15 K, x1 = 0.9493 | 1010.98 ± 0.3 | 1567 ± 2 | 10.62 ± 0.22
313.15 K, x1 = 0.9758 | 1010.43 ± 0.3 | 1592 ± 2 | 10.57 ± 0.22
313.15 K, x1 = 1 | 1010.08 ± 0.3 | 1617 ± 2 | 10.02 ± 0.21
